According to patent US20130324522A1, “INSECT ODORANT RECEPTOR ANTAGONISTS” (THE ROCKEFELLER UNIVERSITY, priority 2010, published 2013):
Read-outs that look alike come from different tables or passages of the source.

Key:
Type in all cases: cell-based
OR10/OR7 = OR10/OR7 (Anopheles gambiae, UniProt B5U0U7+Q7QCC7); assay: Ca2+-imaging of stable HEK293T cell line OR10/OR7; details: for inhibition at 4 µM: HEK-293T, read-out: Percent Inhibition OR10 OR7
Procedure: Stable cell lines OR1/OR7, OR2/OR7, OR8/OR7, OR10/OR7, OR28/OR7 and TRPM8 were generated from HEK293T cells. HEK293T-based cell lines were cultured in DMEM supplemented with these additional antibiotics: 6 μg/mL blasticidin and 1 μg/mL puromycin, with the exception of the TRPM8 cell lines, which was cultured in DMEM supplemented with 1 μg/mL puromycin.
After one day of incubation, the transfected cells were transferred into 10 cm dishes with DMEM containing antibiotics as follows: • 0.5 μg/mL of blasticidin for OR1/OR7, OR2/OR7, OR8/OR7, OR10/OR7, OR28/OR7 • 0.2 μg/mL of puromycin for TRPM8.
(§1) Stable cell lines were cultured in 10 cm dishes, and confluent cells (70-80%) were trypsinized. 10,000 cells/20 μL were transferred into each well of 384-well plates coated with poly-D-lysine, and cultured for 2 days. For Flip-In T-Rex cells (cell lines expressing Or47a/Or83b and 5HT3), 5 μL of tetracycline (5 μg/mL) were added 1 day before the assay. 20 μL of Ca-4 dye was loaded into each well for 1.5 hr at room temperature in the dark, and the dye-loaded plates were subjected to Ca^2+-imaging using a Hamamatsu FDSS6000 real time fluorescence plate reader. Odorant solutions (9× final concentration) were prepared by dissolving 1M stock solutions into Hank's Buffered Salt Solution (HBSS), and 30 μL of odor solution was transferred to each well in 384-well plates.
(§2) Compounds ([…] in DMSO) were stored in 384-well plates, and last two columns (32 wells total) contained only DMSO. 200 nL of small compounds were transferred into the odorant plates before the assay using the Perkin-Elmer Janus workstation. The odorant plates were spun down to remove air bubbles, and placed on the FDSS6000 plate loader, and 5 μL of odorant solution was applied to the cell plate on the FDSS6000. Ca^2+ increase was monitored with fluorescence at 525 nm by excitation at 485 nm.

[1] = target: T1, serotonin receptor (5HT3) (Mus musculus, UniProt P23979); assay: Ca2+-imaging of stable Flip-In T-Rex cell line 5HT3; details: for inhibition at 4 µM: read-out: Percent Inhibition 5HT3; for IC50: Table B, read-out: IC50 5HT3
T1 construct: Full-length cDNAs for mosquito (Anopheles gambiae) odorant receptor; expressed in transfected cells
T1 sequence (P23979 24-489): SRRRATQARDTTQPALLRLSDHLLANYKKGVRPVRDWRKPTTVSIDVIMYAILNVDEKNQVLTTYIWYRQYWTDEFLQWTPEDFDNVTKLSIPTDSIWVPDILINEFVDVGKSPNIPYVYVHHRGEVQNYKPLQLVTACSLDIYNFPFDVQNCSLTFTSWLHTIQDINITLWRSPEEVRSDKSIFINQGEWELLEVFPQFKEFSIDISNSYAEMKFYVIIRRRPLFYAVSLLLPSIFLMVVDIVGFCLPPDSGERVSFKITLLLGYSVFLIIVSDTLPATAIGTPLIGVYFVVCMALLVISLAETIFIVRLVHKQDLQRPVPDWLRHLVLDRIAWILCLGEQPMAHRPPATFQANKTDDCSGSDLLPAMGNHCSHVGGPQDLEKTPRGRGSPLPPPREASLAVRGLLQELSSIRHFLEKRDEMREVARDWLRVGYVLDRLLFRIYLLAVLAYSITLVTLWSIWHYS
Procedure: Full-length cDNAs for mosquito (Anopheles gambiae) odorant receptor (OR1, OR2, OR7, OR8, OR28), and fly (Drosophila melanogaster) odorant receptor (Or47a, Or83b), mouse TRP channel (TRPM8), and mouse serotonin receptor (5HT3) were obtained and subcloned into mammalian expression vectors. The following mammalian expression vectors were used:
Stable cell lines Or47a/Or83b and 5HT3 were generated from Flip-In T-Rex cells. Flip-In T-Rex-based cell lines were cultured in DMEM supplemented with these additional antibiotics: 6 μg/mL blasticidin and 100 μg/mL hygromycin.
Cells were trypsinized and split into 35 mm dishes 1 day before transfection. Confluent cells (60-70%) in 35 mm dishes were co-transfected with 1 μg of Or47a/Or83b plasmid in pcDNA5/FRT/TO/IRES plus the pOG44 plasmid or 1 μg of 5HT3 plasmid in pcDNA5/FRT/TO plus the pOG44 plasmid using lipofectamine 2000. Co-transfection of pOG44 and pcDNA5/FRT/TO/IRES or pcDNA5/FRT/TO allows expression of Flp recombinase and integration of the pcDNA5 plasmid into the genome via the FRT site. After one day of incubation, the transfected cells were transferred into 10 cm dishes with DMEM containing antibiotics: 20 μg/mL of hygromycin and 6 μg/mL of blasticidin. The concentration of Hygromycin was increased to 100 μg/mL when the population of cells became 30-40% confluent. The cells were cultured by changing medium every two days until cell clumps appeared. The clumps were picked and transferred into 96 well plates with DMEM containing 100 μg/mL of Hygromycin and 6 μg/mL of blasticidin. The cells were grown and transferred to 24 well plates, and ligand-evoked calcium increases were tested using the Hamamatsu FDSS6000 real time fluorescence plate reader.
as §1, §2

mOREG = target: T2, mOREG (Mus musculus, UniProt Q920P2); assay: Ca2+-imaging, control receptor mOREG; details: for inhibition at 4 µM: read-out: Percent Inhibition mOREG; for IC50: Table B
T2 sequence (Q920P2 1-313): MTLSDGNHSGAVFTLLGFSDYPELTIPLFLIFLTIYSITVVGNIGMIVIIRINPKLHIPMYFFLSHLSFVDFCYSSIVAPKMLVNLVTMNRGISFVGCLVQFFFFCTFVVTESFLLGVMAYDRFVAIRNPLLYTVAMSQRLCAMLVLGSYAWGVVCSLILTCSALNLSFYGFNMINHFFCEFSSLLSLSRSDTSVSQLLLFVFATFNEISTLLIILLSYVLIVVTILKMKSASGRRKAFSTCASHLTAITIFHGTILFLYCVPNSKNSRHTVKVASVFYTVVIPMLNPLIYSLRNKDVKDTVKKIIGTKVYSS
Procedure: as §1, with “plates. The last two columns of the plate (32 wells total) were used as control wells as follows: • negative control with HBSS buffer (16 wells) • positive control with ligands (16 wells).” for “plates.”
as §2

Sequence of OR10/OR7 (Q7QCC7 whole entry): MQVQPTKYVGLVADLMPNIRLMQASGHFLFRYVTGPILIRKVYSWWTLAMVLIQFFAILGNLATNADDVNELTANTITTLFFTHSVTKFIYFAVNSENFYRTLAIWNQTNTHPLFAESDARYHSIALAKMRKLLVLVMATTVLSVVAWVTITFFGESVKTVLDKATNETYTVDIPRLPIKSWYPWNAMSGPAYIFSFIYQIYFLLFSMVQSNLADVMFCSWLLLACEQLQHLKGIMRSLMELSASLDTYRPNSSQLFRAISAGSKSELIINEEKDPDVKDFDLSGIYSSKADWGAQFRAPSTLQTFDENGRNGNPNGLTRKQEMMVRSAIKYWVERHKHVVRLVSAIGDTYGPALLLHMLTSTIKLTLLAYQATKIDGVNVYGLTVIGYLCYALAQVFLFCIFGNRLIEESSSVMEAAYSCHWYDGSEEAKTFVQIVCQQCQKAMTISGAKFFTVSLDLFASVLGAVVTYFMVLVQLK
Sequence of OR10/OR7 (B5U0U7 entry or part of it): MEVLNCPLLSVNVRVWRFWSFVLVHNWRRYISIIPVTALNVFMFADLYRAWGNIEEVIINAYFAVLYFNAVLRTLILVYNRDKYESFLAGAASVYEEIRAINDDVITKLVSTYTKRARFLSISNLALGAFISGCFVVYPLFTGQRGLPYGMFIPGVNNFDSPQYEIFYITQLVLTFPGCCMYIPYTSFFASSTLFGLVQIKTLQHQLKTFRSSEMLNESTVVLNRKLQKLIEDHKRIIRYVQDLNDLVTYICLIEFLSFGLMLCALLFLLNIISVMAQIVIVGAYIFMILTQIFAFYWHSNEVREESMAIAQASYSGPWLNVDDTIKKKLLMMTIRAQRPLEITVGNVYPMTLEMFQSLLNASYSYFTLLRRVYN

SMILES	inhibition at 4 µM (OR10/OR7; compound applied at 4 μM) [%]	inhibition at 4 µM ([1]; compound applied at 4 μM) [%]	inhibition at 4 µM (mOREG; compound applied at 4 μM) [%]	IC50 (OR10/OR7; Table B, read-out: IC50 OR10) [µM]	IC50 (mOREG) [µM]	IC50 (OR10/OR7) [µM]	inhibition at 4 µM (OR10/OR7) [%]	inhibition at 4 µM [1] [%]	inhibition at 4 µM (mOREG) [%]	IC50 [1] [µM]
CCOC(=O)c1c(NC(C)=O)c(-c2ccc(OC)cc2)cn1Cc1ccccc1 [RU-0077733]	26 to 50	< 25	< 25							
C=CCN(Cc1nccn1Cc1ccc(Cl)c(Cl)c1)C(=O)c1ccccc1F [RU-0047955]	> 75	< 25	< 25	< 0.1						
COCCCN(Cc1c(-c2ccccc2)noc1N1CCCC1)C(=O)c1ccc(F)cc1 [RU-0037386]	26 to 50	26 to 50	26 to 50							
C=CCOc1cccc(C(=O)N2CCCC(C(=O)c3ccccc3OC)C2)c1 (stereo not drawn) [RU-0029409]	26 to 50	< 25	< 25							
COc1cccc(-c2nnc(SCCCC(=O)N3CCN(C(=O)CC(C)(C)C)C(C)C3)n2-c2ccc(C)cc2)c1 (stereo not drawn) [RU-0071818]	51 to 74	< 25	51 to 74	> 1	> 1					
O=C(C1CCC1)N(Cc1ccco1)Cc1nccn1Cc1ccccc1Cl [RU-0048066]	51 to 74	< 25	< 25	< 0.1						
Cc1ccccc1C(=O)N[C@@H]1CCCCC1NC(=O)C1CCN(C(=O)c2ccc(C(C)(C)C)cc2)CC1 (stereo partly drawn) [RU-0045678]	> 75	26 to 50	26 to 50	> 1						
CCOC(=O)C1CCCN(C(=O)c2csc(CSc3nnc(-c4cccc(OC)c4)n3-c3ccc(C)cc3)n2)C1 (stereo not drawn) [RU-0071628]	< 25	26 to 50	26 to 50							
Cc1cc(N(C)C2CCCCC2)nc(SCc2cccc(C(=O)N3CCCC3)c2)n1 [RU-0034108]	26 to 50	< 25	< 25							
CC(C)N(Cc1nccn1Cc1c(F)cccc1Cl)C(=O)c1ccc(Cl)cc1 [RU-0055364]	> 75	< 25	26 to 50	0.1 to 1						
Cc1ccc(-c2nnc(SCCCC(=O)N3CCN(C(=O)c4cccc(F)c4)C(C)C3)n2-c2ccc(C)cc2)cc1 (stereo not drawn) [RU-0071789]	> 75	26 to 50	26 to 50	< 0.1						
COCCN(Cc1nccn1Cc1c(F)cccc1Cl)C(=O)CCc1ccccc1 [RU-0058550]	26 to 50	< 25	26 to 50							
COc1ccccc1C(=O)C1CCCN(C(=O)c2cccc(N3CCOCC3)c2)C1 (stereo not drawn) [RU-0029350]	51 to 74	< 25	26 to 50	> 1						
Cc1cccc(NC(=O)CCC2CCN(C(=O)CCOc3ccccc3)CC2)c1 [RU-0030324]	26 to 50	26 to 50	51 to 74		> 1					
COCCNC(=O)c1ccc(CSc2nnc(-c3ccc(C)cc3)n2-c2ccccc2C)cc1 [RU-0053556]	51 to 74	< 25	26 to 50	> 1						
CCN(CC)C(=O)Oc1ccc2c(ccn2Cc2ccc(Cl)cc2)c1NC(=O)C1CC1 [RU-0075475]						< 0.1	> 75	< 25	< 25	
CCNc1nc(NC(C)C)nc(N(C#N)Cc2ccccc2)n1 [RU-0015806]	26 to 50	51 to 74	< 25	> 1						> 1
COc1ccc(-c2cc(-c3ccccc3)n(C(=O)CN3CCN(Cc4ccccc4)CC3)n2)cc1 [RU-0038795]	< 25	51 to 74	26 to 50							> 1
COCCCN(Cc1c(-c2ccccc2)noc1N1CCC(C)CC1)C(=O)c1ccccc1F [RU-0036876]	< 25	26 to 50	26 to 50							
N#Cc1ccccc1C(=O)N1CCOC(COCc2c(Cl)cccc2Cl)C1 (stereo not drawn) [RU-0050405]	26 to 50	< 25	< 25	> 1						
COCCN(Cc1c(-c2ccccc2)noc1N1CCSCC1)CC(O)COCc1ccco1 (stereo not drawn) [RU-0037278]	26 to 50	26 to 50	26 to 50							
